Results on eight compounds are retold here after patent USRE37421E, “Rapamycin derivatives” (SmithKline Beecham Corporation, priority 1999, dated 2001).

The assay deals with Spleen cells from BDF1 female mice. Put plainly: Mitogenesis Assay for Immunosuppressive Activity (concanavalin A-stimulated spleen cells, 3H-thymidine uptake). Format: cell-based. The following applies: Concanavalin A 5 μg/ml, 72 hours. On the procedure:
Spleen cells from BDF1 female mice were established in RPMI with 10% fetal calf serum at 5×10^6 /mL. […] Concanavalin A (5μ g/ml)was added as the mitogenic stimulus, and the final volume in the microtiter wells was adjusted to 200μ L with RPMI. Cell cultures were incubated for 72 hours at 37° C. in a 5% CO2 atmosphere and pulsed with 0.5μ Ci ^3 H-thymidine (specific activity […]) for the last 18 hours of the 72 hour culture. The cells were harvested on an automated multiple sample harvester and cell-associated radioactivity counted in a Beckman liquid scintillation counter. The results are expressed as the mean values derived from quadruplicate measurements. Cell viability was determined by trypan blue exclusion after 72 hours of incubation. Compounds to be tested were added to the microtiter plates at the appropriate dilutions prior to the addition of cells.

As usually defined, the IC50 is the concentration that inhibits the measured activity by half. `CO[C@H]1C[C@@H]2CC[C@@H](C)[C@@](O)(O2)C(=O)C(=O)N2CCCC[C@H]2C(=O)O[C@H]([C@H](C)C[C@@H]2CC[C@@H](O)[C@H](OC)C2)CC(=O)[C@H](C)/C=C(\C)[C@@H](O)[C@@H](OC)C(O)[C@H](C)C[C@H](C)/C=C/C=C/C=C/1C` (single isomer, unassigned) [Ex. 4, isomer 2, 30-Dihydro-rapamycins]: the IC50 (BDF1 mouse spleen cells) was in the range of 0.1 to 1 nM.
In turn, `CO[C@H]1C[C@@H]2CC[C@@H](C)[C@@](O)(O2)C(=O)C(=O)N2CCCC[C@H]2C(=O)O[C@H]([C@H](C)C[C@@H]2CC[C@@H](O)[C@H](OC)C2)CC(=O)[C@H](C)/C=C(\C)[C@H]2OC(C)(C)OC([C@H](C)C[C@H](C)/C=C/C=C/C=C/1C)[C@@H]2OC` [Ex. 5, 30-Dihydro-Rapamycin-28, 30-Acetonide] displayed an IC50 (Mus musculus) of 100 to 1000 nM.
With `CO[C@H]1C[C@@H]2CC[C@@H](C)[C@@](O)(O2)C(=O)C(=O)N2CCCC[C@H]2C(=O)O[C@H]([C@H](C)C[C@@H]2CC[C@@H](O)[C@H](OC)C2)CC(=O)[C@H](C)/C=C(\C)[C@@H](O)[C@@H](OC)C(O)[C@H](C)C[C@H](C)/C=C/C=C/C=C/1C` (single isomer, unassigned) [Ex. 4, isomer 1, 30-Dihydro-rapamycins], for the setting “BDF1 mouse spleen cells”, half-maximal inhibition (IC50) was put at 2 nM.
`CO[C@H]1C[C@@H]2CC[C@@H](C)[C@@](O)(O2)C(O)C(=O)N2CCCC[C@H]2C(=O)O[C@H]([C@H](C)C[C@@H]2CC[C@@H](O)[C@H](OC)C2)CC(=O)[C@H](C)/C=C(\C)[C@@H](O)[C@@H](OC)C(O)[C@H](C)C[C@H](C)/C=C/C=C/C=C/1C` (single isomer, unassigned) [Ex. 2, isomer 1, 14,30-Bisdihydrorapamycin] showed an IC50 (Mus musculus) of 1 to 10 nM.
On to `CO[C@H]1C[C@@H]2CC[C@@H](C)[C@@](O)(O2)C(O)C(=O)N2CCCC[C@H]2C(=O)O[C@H]([C@H](C)C[C@@H]2CC[C@@H](O)[C@H](OC)C2)CC(=O)[C@H](C)/C=C(\C)[C@@H](O)[C@@H](OC)C(O)[C@H](C)C[C@H](C)/C=C/C=C/C=C/1C` (single isomer, unassigned) [Ex. 2, isomer 2, 14,30-Bisdihydrorapamycin], for which the IC50 (BDF1 mouse spleen cells) lay within 1 to 10 nM.
For `CO[C@H]1[C@@H](O)[C@H](C)C[C@H](C)/C=C/C=C/C=C(\C)[C@@H](OC)C[C@@H]2CC[C@@H](C)[C@](O)(CC(=O)N3CCCC[C@H]3C(=O)O[C@H]([C@H](C)C[C@@H]3CC[C@@H](O)[C@H](OC)C3)CC(=O)[C@H](C)/C=C(\C)[C@H]1O)O2` [Ex. 6, 14-Desoxo-30 (S) -dihydro-rapamycin], for the setting “Mus musculus”, the half-maximal inhibitory concentration (IC50) is > 1000 nM.
Compound `CO[C@H]1C[C@@H]2CC[C@@H](C)[C@@](OC)(O2)C(O)C(=O)N2CCCC[C@H]2C(=O)O[C@H]([C@H](C)C[C@@H]2CC[C@@H](O)[C@H](OC)C2)CC(=O)[C@H](C)/C=C(\C)[C@@H](O)[C@@H](OC)C(O)[C@H](C)C[C@H](C)/C=C/C=C/C=C/1C` (single isomer, unassigned) [Ex. 3, major isomer, 14,30-Bisdihydro-13-O-methylrapamycins] displayed an IC50 (Mus musculus) of 100 to 1000 nM.
Where the note is “Mus musculus”, `CO[C@H]1C[C@@H]2CC[C@@H](C)[C@@](O)(O2)C(O)C(=O)N2CCCC[C@H]2C(=O)O[C@H]([C@H](C)C[C@@H]2CC[C@@H](O)[C@H](OC)C2)CC(=O)[C@H](C)/C=C(\C)[C@@H](O)[C@@H](OC)C(=O)[C@H](C)C[C@H](C)/C=C/C=C/C=C/1C` (single isomer, unassigned; isomer 14) [Ex. 1, major isomer, 14-Dihydrorapamycin] came in with an IC50 of 10 nM.
